Patent publication US20210008069A1, “THERAPEUTIC AGENT FOR INFLAMMATORY BOWEL DISEASE” (DAIICHI SANKYO COMPANY, LIMITED, priority 2018, published 2021)

Test system: DSS-induced colitis model
Assay: Efficacy in model of dextran sulfate sodium-induced colitis
Assay type: in vivo, C57BL/6J mice
Experimental: A colitis model was prepared by allowing 7-week-old male C57BL/6J mice to freely drink a 1.5% aqueous solution of dextran sulfate sodium (hereinafter, DSS) dissolved in pure water purified through a Milli-Q (registered trademark, Merck Millipore) filter (hereinafter, referred to as Milli-Q water). For the control group, only Milli-Q water was administered. Simultaneously with the start of administration of DSS in drinking water, feed prepared by mixing Compound A (0.01%, 0.03%) with powdered FR-2 was administered to the feed administered group. For the vehicle group with feeding, and the control group, to which no DSS was administered, only powdered FR-2 was administered. The day on which the administration of DSS in drinking water and the administration of the compound were started was designated as Day 1, and the administration was continued until Day 8.
Control group: Milli-Q water, FR-2 (N=10) Vehicle group: 1.5% DSS solution, FR-2 (N=10) Compound A 0.01% group: 1.5% DSS solution, FR-2 mixed with 0.01% Compound A (N=10) Compound A 0.03% group: 1.5% DSS solution, FR-2 mixed with 0.03% Compound A (N=10)
All animals were weighed in the morning from Day 1 to Day 8. On Day 8, the abdomen was opened under isoflurane anesthesia, blood was collected from the abdominal vein by an untreated syringe, the duodenum, large intestine, rectum, and anus were removed, and the length of the removed large intestine was measured with an electric caliper. The large intestine was cut open to observe the stool properties and score the degree of diarrhea.

[1] = 0.03% Compound A in feed, Day 1 to Day 8, 1.5% DSS in drinking water, compared with negative control

In the case of `Cc1nc(CC2CCN(c3ccc(-c4ccc(C[C@H](C)O)cc4)cc3)CC2)nc(C(=O)NCC(=O)O)c1O` [Compound A, [({5-hydroxy-2-[(1-{4′-[(2S)-2-hydroxypropyl]biphenyl-4-yl}piperidin-4-yl)methyl]-6-methylpyrimidin-4-yl}carbonyl)amino]acetic acid], the “Inhibitory effect on intestinal length shortening (intestinal tract length on Day 8)” value [1] was “significant inhibitory effect on intestinal length shortening”, the “Inhibitory effect on weight loss (amount of change in body weight on Day 8)” value [1] was “significant inhibitory effect on weight loss” and the “Diarrhea score on Day 8 (stool properties)” value (compound-administered group (0.01%, 0.03% in feed), 1.5% DSS, score 0-3 per Table 1, compared with negative control) was “tended to have improved stool properties”. The “Effect on the clinical condition in DSS-induced colitis model” value (overall conclusion, mice, administration in feed Day 1 to Day 8) was “improving effect on the clinical condition”.
